{"source": "patent US20210221866A1", "about": "“PROTEASE-RESISTANT LIPIDATED GLP-1 ANALOGS” (MEDIMMUNE LIMITED, priority 2015, published 2021)", "test": "in vitro", "conditions": "isolated enzyme chymotrypsin, pH 7.8", "procedure": "Ratio enzyme (units):peptide (μmoles) ˜1:33. […] Ratio enzyme (units):peptide (μmoles) ˜1:2.5.\n15 μL aliquots (˜15 μg initial peptide) of the peptide-enzyme mixture are periodically withdrawn (t=0, 30 mins, 1 hr, 2 hr, 4 hr, 8 hr, 24 hr) and quenched immediately by addition to an equal volume (15 μL) of 5% TFA (v/v) in 1:1 water/acetonitrile to arrest proteolytic activity. 20 μL aliquots (˜10 μg initial peptide) are analysed by LC/MS and/or analytical RP-HPLC as follows: LC/MS method: Agilent Polaris C8-A column (4.6×100 mm, 3 micron) elutes with a linear binary gradient of 10-90% MeCN (0.1% TFA v/v) in water (0.1% TFA v/v) over 30 mins at 1.5 mL min^−1 at ambient temperature with detection by both UV absorption at 210 nm and ionization using a Waters 3100 mass detector (ESI^+ mode). Peptide fragments deriving from enzymatic hydrolysis are identified by molecular weight, allowing location of the site of cleavage. Analytical RP-HPLC method: Agilent Polaris C8-A column (4.6×100 mm, 3 micron) elutes with a linear binary gradient of 10-90% MeCN (0.1% TFA v/v) in water (0.1% TFA v/v) over either 10 or 15 mins at 1.5 mL min^−1 at 40° C. with detection by UV absorption at 210 nm. Manual integration (AUC) allows estimation of remaining intact peptide over the time course of the experiment.\n25 μL aliquots (˜6 μg initial peptide) are analysed by LC/MS and/or analytical RP-HPLC as follows: LC/MS method: Agilent Polaris C8-A column (4.6×100 mm, 3 micron) elutes with a linear binary gradient of 10-90% MeCN (0.1% TFA v/v) in water (0.1% TFA v/v) over 30 mins at 1.5 mL min^−1 at ambient temperature with detection by both UV absorption at 210 nm and ionization using a Waters 3100 mass detector (ESI±mode). Peptide fragments deriving from enzymatic hydrolysis are identified by molecular weight, allowing location of the site of cleavage. Analytical RP-HPLC method: Agilent Polaris C8-A column (4.6×100 mm, 3 micron) elutes with a linear binary gradient of 10-90% MeCN (0.1% TFA v/v) in water (0.1% TFA v/v) over either 10 or 15 mins at 1.5 mL min^−1 at 40° C. with detection by UV absorption at 210 nm. Manual integration (AUC) allows estimation of remaining intact peptide over the time course of the experiment.", "data": [{"smiles": "CCCCCCCCCCCCCCCC(=O)N[C@@H](CCC(=O)NCCCC[C@H](NC(=O)[C@H](C)NC(=O)[C@H](C)NC(=O)[C@H](CCC(N)=O)NC(=O)CNC(=O)[C@H](CCC(=O)O)NC(=O)[C@H](CC(C)C)NC(=O)[C@H](Cc1ccc(O)cc1)NC(=O)[C@H](CO)NC(=O)[C@H](CO)NC(=O)[C@@H](NC(=O)[C@H](CC(=O)O)NC(=O)[C@H](CO)NC(=O)[C@@H](NC(=O)[C@H](Cc1ccccc1)NC(=O)[C@@H](NC(=O)CNC(=O)[C@H](CCC(=O)O)NC(=O)[C@H](C)NC(=O)[C@@H](N)Cc1cnc[nH]1)[C@@H](C)O)[C@@H](C)O)C(C)C)C(=O)N[C@@H](CCC(=O)O)C(=O)N[C@@H](Cc1ccccc1)C(=O)N[C@H](C(=O)N[C@@H](C)C(=O)N[C@@H](Cc1c[nH]c2ccccc12)C(=O)N[C@@H](CC(C)C)C(=O)N[C@H](C(=O)N[C@@H](CCCNC(=N)N)C(=O)NCC(=O)N[C@@H](CCCNC(=N)N)C(=O)NCC(=O)O)C(C)C)[C@@H](C)CC)C(=O)O", "note": "[Liraglutide]", "values": [{"measurement": "remaining at 1 h", "result": 95.6, "unit": "%"}]}]}
